In article PMC8138013, “Rational design of innate defense regulator peptides as tumor vaccine adjuvants” (NPJ Vaccines, 2021):

Key:
JAWSII cells [1] = assay: RT-qPCR of transcription factor mRNA after DP7, with or without chemical inhibitors; type: cell-based, mouse; conditions: for effect of inhibitor on DP7-induced mRNA expression of transcription factors: pretreatment 1 h at 10 μM (BIBR796 5 μM) or PTX 200 ng/ml 3 h, then DP7 30 min, compared to DP7 alone
Method: [The procedure below names another cell line; the source lists this cell line under the same test.] Small molecule inhibitors were employed to elucidate the upstream signaling pathways involved in the expression of 6 transcription factors: selumetinib (MEK1/2 inhibitor), BIBR796 (p38α inhibitor), sp600125 (pan JNK inhibitor), XMD8-92 (Erk5 inhibitor), sotrastaurin (PKCθ inhibitor), AS-605240 (PI3Kγ inhibitor), LY294002 (PI3Kα/β/γ inhibitor) and pertussis toxin (PTX, Gi protein inhibitor). BMDCs were pretreated with 10 μM selumetinib, 5 μM BIBR796, 10 μM sp600125, 10 μM XMD8-92, 10 μM sotrastaurin, 10 μM AS-605240, and 10 μM LY294002 at 37 °C for 1 h and with 200 ng/ml PTX at 37 °C for 3 h. BMDCs were exposed to DP7 at 37 °C for 30 min, and then the mRNA expression of the transcription factors was examined by RT-qPCR.
Total RNA was isolated using TRIzol reagent (Takara, Otsu, Japan), further purified by isopropanol/ethanol precipitation and finally dissolved in RNase-Free H2O. cDNA was prepared with 5× All-In-One MasterMix with the AccuRT Genomic DNA Removal Kit (Abm Canada Inc., Milton, ON, Canada) and employed as a template to assess the expression of various genes with EvaGreen 2× qPCR MasterMix (Abm Canada Inc., Milton, ON, Canada). The results were analyzed according to the relative expression normalized against β-actin.

JAWSII cells [2] = assay: Western blotting of Erk1/2 phosphorylation in JAWSII cells; type: cell-based, mouse
Source text: Protein extracts from each sample were separated by 12% SDS-PAGE and transferred onto polyvinylidene fluoride membranes (Millipore, Billerica, MA). The membranes were blocked with 5% non-fat milk. Then, the protein bands were probed with primary antibodies against NF-κB p65 XP® Rabbit mAb (clone D14E12; Cell Signaling Technology Cat#8242), Phospho-NF-κB p65 (Ser536) Rabbit mAb (clone 93H1; Cell Signaling Technology Cat#3033), Erk1/2 Rabbit mAb (clone 137F5; Cell Signaling Technology Cat#4695) and Phospho- Erk1/2 (Thr202/Tyr204) XP® Rabbit mAb (clone D13.14.4E; Cell Signaling Technology Cat#4370) overnight at 4 °C. Then the membranes were incubated with horseradish peroxidase-conjugated goat anti-rabbit IgG (1:3000; Cell Signaling Technology Cat#7074). The blots derive from the same experiment were processed in parallel. The full, uncropped blot with molecular weight marker are shown in Supplementary Fig. 9.

C57BL/6 mice = assay: Leukocyte recruitment to peritoneal lavage; type: in vivo, mouse; conditions: C57BL/6, 200 μg i.p., 24 h post-injection, N = 5, vs saline
Method: C57BL/6 mice (N = 5) were intraperitoneally injected with 200 μg DP7, DP8, or DP10. An equal volume of sterile saline served as a control. Cells in the peritoneal lavage were collected and counted at 24 h postinjection. To analyze the recruitment of leukocytes, cells were stained with PE-anti-mouse-GR-1(clone RB6-8C5; BD Biosciences Cat# 553128), APC-anti-mouse-F4/80 (clone T45-2342; BD Biosciences Cat# 566787) or PE-anti-CD11b (clone M1/70; BD Biosciences Cat# 557397) at 4 °C for 30 min and then detected using a BD FACSCalibur (BD Biosciences, San Jose, CA). Neutrophils, inflammatory monocytes and macrophages were gated as Gr1^+F4/80^−, F4/80^+Gr1^+, and F4/80^+CD11b^+ cells, respectively.

GPR35 = assay: Receptor internalization assay; type: cell-based, mouse; conditions: BMDCs, DP7 40 μg/ml, 30 min, immunofluorescence; similar in JASWII and RAW264.7 cells
Method: BMDCs (1 × 10^5) were plated on a microscope cover glass and cultured at 37 °C overnight. The next day, the cells were stimulated with 40 μg/ml DP7 at 37 °C for 30 min and then fixed in 4% paraformaldehyde in PBS at room temperature for 15 min. After washing with PBS 3 times, the BMDCs were blocked and permeabilized in buffer containing 0.1% bovine serum albumin (BSA), 0.5% Triton X-100, and 4% goat serum in PBS for 1 h. Afterward, the BMDCs were incubated with goat anti-GPR35 (clone M-14; Santa Cruz Biotechnology Cat# sc-79507; 1:100) in 3% BSA/PBS buffer at 4 °C for 16 h, followed by staining with the FITC-labeled anti-goat IgG (H + L) secondary antibody (1:100, ZSGB-BIO, Beijing, China) in 3% BSA/PBS buffer at 37 °C for 1 h. BMDCs were finally stained with DAPI and stored at 4 °C until imaging. Confocal imaging was performed with an LSM 800 Zeiss confocal microscope.

JAWSII cells [3] = assay: Intracellular calcium measurement (Fluo 3-AM); type: cell-based, mouse; conditions: DP7 40 µg/ml, 15 and 30 min
Method: JAWSII cells (1 × 10^5) were seeded into 96-well clear–bottom black plates (Corning, New York, USA.) with six replicate wells per condition and cultured at 37 °C overnight. The cells were washed once with Hank’s buffer followed by incubation with the calcium fluorescence probe Fluo 3-AM (5 μM; excitation at 506 nm and emission at 526 nm) (Beyotime, Hangzhou, China) in Hank’s buffer at 37 °C for 30 min. After treatment, the cells were washed once with Hank’s buffer and subsequently stimulated with DP7 (40 µg/ml) for 15 min or 30 min. Fluorescence was measured by a Celligo® imaging cytometer. The Ca^2+ levels are represented by the mean fluorescence intensity of individual cells.

BMDCs [4] = assay: RNA-Seq analysis of BMDCs challenged with DP7; type: cell-based, mouse; conditions: DP7 30 min vs control
BMDCs [5] = assay: BMDC maturation surface markers (flow cytometry); type: cell-based, mouse; conditions: CD11c+ BMDCs, 16 h, DP7 40 µg/ml, CpG 20 µg/ml
Method: To study the effect of the CpG/DP7 complex on BMDCs, BMDCs were incubated with DP7 (40 µg/ml), CpG (20 µg/ml) or the CpG/DP7 combination for 16 h, stained with APC-anti-Mouse CD11c (Clone HL3; BD Biosciences Cat# 550261), FITC-anti-mouse-CD40 (Clone 3/23; BD Biosciences Cat# 561845), PerCP-Cy5.5-anti-mouse-CD80(clone 16-10A1; BD Biosciences Cat# 560526) or FITC-anti-mouse-CD86 (clone GL1; BD Biosciences Cat# 561962). BMDCs were gated as CD11c^+ and analyzed for CD40, CD80, CD86 expression by NovoExpress software (ACEA Biosciences, Inc.).

O=C1NC(=O)/C(=C\c2ccc3nccnc3c2)S1 [AS-605240]
effect of inhibitor on DP7-induced mRNA expression of transcription factors (JAWSII cells [1]): significantly suppressed

Cn1cnc2c(F)c(Nc3ccc(Br)cc3Cl)c(C(=O)NOCCO)cc21 [selumetinib]
effect of inhibitor on DP7-induced mRNA expression of transcription factors (JAWSII cells [1]): significantly suppressed

CCOc1cc(N2CCC(O)CC2)ccc1Nc1ncc2c(n1)N(C)c1ccccc1C(=O)N2C [XMD8-92]
effect of inhibitor on DP7-induced mRNA expression of transcription factors (JAWSII cells [1]): little or no inhibitory effect

CN1CCN(c2nc(C3=C(c4c[nH]c5ccccc45)C(=O)NC3=O)c3ccccc3n2)CC1 [sotrastaurin]
effect of inhibitor on DP7-induced mRNA expression of transcription factors (JAWSII cells [1]): significantly suppressed

Cc1ccc(-n2nc(C(C)(C)C)cc2NC(=O)Nc2ccc(OCCN3CCOCC3)c3ccccc23)cc1 [BIBR796]
effect of inhibitor on DP7-induced mRNA expression of transcription factors (JAWSII cells [1]): little or no inhibitory effect

pertussis toxin [PTX, reference compound]
effect of inhibitor on DP7-induced mRNA expression of transcription factors (JAWSII cells [1]): significantly suppressed | effect on activation of pErk1/2 by DP7 (JAWSII cells [2]; JAWSII cells pretreated with PTX, then DP7 30 and 60 min): partially abolished

VQWRIRVAVIRK [DP7]
number of macrophages in the peritoneal lavage (C57BL/6 mice): modest but nonsignificant increase | numbers of monocytes and neutrophils in the peritoneal lavage (C57BL/6 mice): significant increase | GPR35 localisation after stimulation (GPR35): internalization of GPR35 into the cytoplasm | intracellular Ca2+ levels (JAWSII cells [3]): elevation | Fold change, Akap9 (BMDCs [4]): 2.08 | Fold change, Arap2 (BMDCs [4]): 2.02 | Fold change, Atxn1l (BMDCs [4]): 2.04 | Fold change, Btg2 (BMDCs [4]): 2.47 | Fold change, Ccdc77 (BMDCs [4]): 2.06 | Fold change, Ccno (BMDCs [4]): 2.1 | Fold change, Clec4b2 (BMDCs [4]): 2.82 | Fold change, Depdc5 (BMDCs [4]): 2.01 | Fold change, Dgkh (BMDCs [4]): 2.4 | Fold change, Egr1 (BMDCs [4]): 16.63 | Fold change, Egr2 (BMDCs [4]): 2.4 | Fold change, Egr3 (BMDCs [4]): 15.7 | Fold change, Ethe1 (BMDCs [4]): 2.89 | Fold change, F3 (BMDCs [4]): 2.23 | Fold change, Fbxw7 (BMDCs [4]): 2.25 | Fold change, Fos (BMDCs [4]): 6.34 | Fold change, Fosb (BMDCs [4]): 114.79 | Fold change, Gm6377 (BMDCs [4]): 2.68 | Fold change, Gm9159 (BMDCs [4]): 2.03 | Fold change, Gm12359 (BMDCs [4]): 2.13 | Fold change, Gpr35 (BMDCs [4]): 2.2 | Fold change, Gpr52 (BMDCs [4]): 3.32 | Fold change, Gsta1 (BMDCs [4]): 3.08 | Fold change, Ier2 (BMDCs [4]): 3.15 | Fold change, Igj (BMDCs [4]): 2.68 | Fold change, Jmjd1c (BMDCs [4]): 2.09 | Fold change, Klhl15 (BMDCs [4]): 3.73 | Fold change, Lmo1 (BMDCs [4]): 2.81 | Fold change, Lrrc40 (BMDCs [4]): 2.19 | Fold change, Nr4a1 (BMDCs [4]): 19.81 | Fold change, Nr4a2 (BMDCs [4]): 2.02 | Fold change, Osm (BMDCs [4]): 2.42 | Fold change, Parp6 (BMDCs [4]): 2.3 | Fold change, Perp (BMDCs [4]): 2.05 | Fold change, Phf8 (BMDCs [4]): 2.17 | Fold change, Plk3 (BMDCs [4]): 2.75 | Fold change, Prph (BMDCs [4]): 2.22 | Fold change, Prrg4 (BMDCs [4]): 2.05 | Fold change, Slc38a9 (BMDCs [4]): 2.15 | Fold change, Suco (BMDCs [4]): 2.19 | Fold change, Szt2 (BMDCs [4]): 2.01 | Fold change, Tjp1 (BMDCs [4]): 3.44 | Fold change, Tmem51 (BMDCs [4]): 2.05 | Fold change, Tnfaip6 (BMDCs [4]): 2.01 | Fold change, Trib1 (BMDCs [4]): 2.69 | expression of Egr1, Egr2, Egr3, c-Fos, Fosb and Nr4a1 mRNA (JAWSII cells [1]; DP7 40 μg/ml, 30 min, vs nonstimulated): elevated expression | CD40-FITC positive BMDCs (BMDCs [5]): 1.1% | CD80-PerCP-Cy5.5 positive BMDCs (BMDCs [5]): 28.9% | CD86-FITC positive BMDCs (BMDCs [5]): 36.2% | Erk1/2 phosphorylation (JAWSII cells [2]; JAWSII cells, DP7 30 and 60 min, western blotting): enhancement

Oc1c2ccccc2c2c3c(cccc13)N=N2 [sp600125]
effect of inhibitor on DP7-induced mRNA expression of transcription factors (JAWSII cells [1]): little or no inhibitory effect

O=c1cc(N2CCOCC2)oc2c(-c3ccccc3)cccc12 [LY294002]
effect of inhibitor on DP7-induced mRNA expression of transcription factors (JAWSII cells [1]): little or no inhibitory effect
